Source: patent US20150322033A1, “ANTIBACTERIAL AGENT” (priority 2012, published 2015)
Values after ≈ are worked out from the molar mass of the structure shown.
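Throughout, for MIC ratio: ratio is FDA209P MIC divided by Mu50 MIC.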

These compounds were tested on S. aureus FDA209P (ATCC 6538P) (assay: microbe, parasite or virus in culture). Details: Example 1, Tables 1 to 10.
Assay type: cell-based, Staphylococcus aureus
Procedure: (§1) S. aureus Mu50 (refer to Hiramatsu, K., Hanaki H., et al., J. Antimicrob. Chemother., 1997, 40(1), 135-6) or S. aureus FDA209P (ATCC 6538P) was cultured overnight at 37° C. in 4 mL of TBS (Tryptical Soy Broth, produced by Becton Dickinson) with shaking. After completion of the culture, the cells were suspended in fresh TBS to prepare a cell suspension showing an absorbance of 0.3 at 578 nm. Then, the cell suspension was diluted 500 times with CAMHB mentioned above.
(§2) CAMHB containing each test compound at each of the aforementioned concentrations was added to each well of a 96-well plate in a volume of 50 μL/well, the aforementioned cell suspension diluted 500 time was added to the well in a volume of 50 μL/well, and stationary culture was carried out overnight at 37° C.
(§3) MIC values (mg/L) of the flavones and quinolones against the strains were measured in the same manner as that of the measurement of MIC of Example 1, except that CAMHB containing each of the aforementioned flavones and quinolones prepared in Example 2 was used instead of CAMHB containing each of the test compounds.
(§4) MIC values of the flavones and quinolone for the strains were measured in the same manners as those of Example 1, except that S. aureus Mu50 NR-1 was also used as Staphylococcus aureus in addition to S. aureus FDA209P and S. aureus Mu50, cell suspensions of the strains were prepared.
(§5) In the same manner as that of Example 1, MIC values of M-246, M-21, J-Q21, and J-Q12.1 for Staphylococcus aureus were measured. M-246 and M-21 were obtained as commercial products, and as J-Q21 and J-Q12.1, those synthesized in Examples 6 and 7 were used.
For `O=c1c(O)c(-c2ccc(O)cc2O)oc2cc(O)cc(O)c12` [compound 2], the “MIC (mg/L) FDA209P” value was greater than 128 mg/L. For `O=c1c(O)c(-c2ccc(O)cc2O)oc2cc(O)cc(O)c12` [compound 3], the “MIC (mg/L) FDA209P” value was greater than 128 mg/L. With `Cc1c(O)cc2oc(-c3ccc(O)c(O)c3)c(O)c(=O)c2c1O` [compound 5] the “MIC (mg/L) FDA209P” value was 128 mg/L (≈ 405 µM). `Cc1c(O)cc(O)c2c(=O)cc(-c3ccccc3)oc12` [compound 8] was tested, and the “MIC (mg/L) FDA209P” value was greater than 128 mg/L. For `COc1ccc(-c2cc(=O)c3c(OC)c(OC)c(OC)c(OC)c3o2)cc1OC` [compound 10], the “MIC (mg/L) FDA209P” value was 128 mg/L (≈ 318 µM). For `COc1ccc(-c2cc(=O)c3c(OC)c(OC)c(OC)c(OC)c3o2)cc1` [compound 11], the “MIC (mg/L) FDA209P” value was greater than 128 mg/L. `O=c1c(O)c(-c2ccccc2)oc2ccccc12` [compound 12] was tested, and the “MIC (mg/L) FDA209P” value was greater than 128 mg/L. For `O=c1cc(-c2ccccc2)oc2ccc(O)cc12` [compound 13], the “MIC (mg/L) FDA209P” value was greater than 128 mg/L. With `O=c1cc(-c2ccccc2)oc2c(O)c(O)ccc12` [compound 14] the “MIC (mg/L) FDA209P” value was 64 mg/L (≈ 252 µM). `COc1ccc2oc(-c3ccccc3)cc(=O)c2c1` [compound 16] was tested, and the “MIC (mg/L) FDA209P” value was 128 mg/L (≈ 507 µM). With `O=c1cc(-c2ccccc2)oc2cccc(O)c12` [compound 17] the “MIC (mg/L) FDA209P” value was 128 mg/L (≈ 537 µM). `COc1ccc(-c2cc(=O)c3c(OC)cc(OC)cc3o2)cc1` [compound 18] was tested, and the “MIC (mg/L) FDA209P” value was 128 mg/L (≈ 410 µM). For `COc1cc(OC)c2c(=O)c(OC)c(-c3ccc(OC)c(OC)c3)oc2c1` [compound 19], the “MIC (mg/L) FDA209P” value was greater than 128 mg/L. In the case of `COc1cc(OC)c2c(=O)cc(-c3ccccc3)oc2c1C` [compound 21], the “MIC (mg/L) FDA209P” value is reported as greater than 128 mg/L. `CC(C)Oc1ccc(-c2cc(=O)c3c(OC(C)C)cc(OC(C)C)c(I)c3o2)cc1` [compound 23] was tested, and the “MIC (mg/L) FDA209P” value was greater than 128 mg/L. For `COc1ccc(-c2oc3cc4c(c(OC)c3c(=O)c2OC)OCO4)cc1` [compound 32], the “MIC (mg/L) FDA209P” value was greater than 128 mg/L. With `COc1cc(-c2oc3c(OC)c(OC)c(OC)c(OC)c3c(=O)c2OC)cc2c1OCO2` [compound 35] the “MIC (mg/L) FDA209P” value was greater than 128 mg/L. In the case of `COc1cc(O)c(CN2CCCCC2)c2oc(-c3ccccc3)cc(=O)c12` [compound 48], the “MIC (mg/L) FDA209P” value is reported as 128 mg/L (≈ 350 µM). With `COc1cc(O)c(CN2CC(C)CC(C)C2)c2oc(-c3ccccc3)cc(=O)c12` (centres unmarked) [compound 49] the “MIC (mg/L) FDA209P” value was 128 mg/L (≈ 325 µM). For `COc1cc(O)c(CN2CCN(C)CC2)c2oc(-c3ccccc3)cc(=O)c12` [compound 51], the “MIC (mg/L) FDA209P” value was 128 mg/L (≈ 336 µM). In the case of `COc1cc(O)c(CN2CCCC(C)C2)c2oc(-c3ccccc3)cc(=O)c12` (centres unmarked) [compound 53], the “MIC (mg/L) FDA209P” value is reported as 128 mg/L (≈ 337 µM). With `COc1cc(O)c2c(=O)c(-c3cc4c(cc3C)OCCO4)c(C)oc2c1` [compound 86] the “MIC (mg/L) FDA209P” value was greater than 128 mg/L.

Same assay, conditions: Example 2, Table 12
For `O=c1cc(-c2ccccc2)oc2ccccc12.O=c1cc(-c2ccccc2)oc2ccccc12` [Compound 25], the “MIC (mg/L) S. aureus FDA209P” value was 128 mg/L.

Same assay, conditions: Example 8, Table 17
In the case of `O=c1c(O)c(-c2ccccc2)oc2cc(O)c(O)c(O)c12` [M-21], the “MIC FDA209P” value is reported as 64 mg/L (≈ 224 µM).

What follows are compounds tested on S. aureus Mu50 (assay: microbe, parasite or virus in culture). Details: (MIC value for S. aureus FDA209P)/(MIC value for S. aureus Mu50).
Assay type: cell-based, Staphylococcus aureus
Procedure: as §1, §2, §3, §4, §5
Work on `O=c1cc(-c2ccccc2)oc2ccccc12.O=c1cc(-c2ccccc2)oc2ccccc12` [Compound 25] yielded an MIC ratio of 2.

Same assay, conditions: Example 1, Tables 1 to 10
With `O=c1c(O)c(-c2ccc(O)cc2O)oc2cc(O)cc(O)c12` [compound 2] the “MIC (mg/L) Mu50” value was 128 mg/L (≈ 424 µM). `O=c1c(O)c(-c2ccc(O)cc2O)oc2cc(O)cc(O)c12` [compound 3] was tested, and the “MIC (mg/L) Mu50” value was greater than 128 mg/L. With `Cc1c(O)cc2oc(-c3ccc(O)c(O)c3)c(O)c(=O)c2c1O` [compound 5] the “MIC (mg/L) Mu50” value was 128 mg/L (≈ 405 µM). `COc1ccc(-c2cc(=O)c3c(OC)c(OC)c(OC)c(OC)c3o2)cc1` [compound 11] was tested, and the “MIC (mg/L) Mu50” value was greater than 128 mg/L. In the case of `O=c1c(O)c(-c2ccccc2)oc2ccccc12` [compound 12], the “MIC (mg/L) Mu50” value is reported as greater than 128 mg/L. `O=c1cc(-c2ccccc2)oc2ccc(O)cc12` [compound 13] was tested, and the “MIC (mg/L) Mu50” value was greater than 128 mg/L. With `O=c1cc(-c2ccccc2)oc2c(O)c(O)ccc12` [compound 14] the “MIC (mg/L) Mu50” value was 64 mg/L (≈ 252 µM). With `COc1ccc2oc(-c3ccccc3)cc(=O)c2c1` [compound 16] the “MIC (mg/L) Mu50” value was 128 mg/L (≈ 507 µM). In the case of `O=c1cc(-c2ccccc2)oc2cccc(O)c12` [compound 17], the “MIC (mg/L) Mu50” value is reported as 128 mg/L (≈ 537 µM). For `COc1ccc(-c2cc(=O)c3c(OC)cc(OC)cc3o2)cc1` [compound 18], the “MIC (mg/L) Mu50” value was 128 mg/L (≈ 410 µM). `COc1cc(OC)c2c(=O)c(OC)c(-c3ccc(OC)c(OC)c3)oc2c1` [compound 19] was tested, and the “MIC (mg/L) Mu50” value was greater than 128 mg/L. `COc1cc(OC)c2c(=O)cc(-c3ccccc3)oc2c1C` [compound 21] was tested, and the “MIC (mg/L) Mu50” value was greater than 128 mg/L. In the case of `CC(C)Oc1ccc(-c2cc(=O)c3c(OC(C)C)cc(OC(C)C)c(I)c3o2)cc1` [compound 23], the “MIC (mg/L) Mu50” value is reported as greater than 128 mg/L. `COc1ccc(-c2oc3cc4c(c(OC)c3c(=O)c2OC)OCO4)cc1` [compound 32] was tested, and the “MIC (mg/L) Mu50” value was greater than 128 mg/L. In the case of `COc1cc(O)c(CN2CCCCC2)c2oc(-c3ccccc3)cc(=O)c12` [compound 48], the “MIC (mg/L) Mu50” value is reported as greater than 128 mg/L. With `COc1cc(O)c(CN2CC(C)CC(C)C2)c2oc(-c3ccccc3)cc(=O)c12` (centres unmarked) [compound 49] the “MIC (mg/L) Mu50” value was greater than 128 mg/L. `COc1cc(O)c(CN2CCN(C)CC2)c2oc(-c3ccccc3)cc(=O)c12` [compound 51] was tested, and the “MIC (mg/L) Mu50” value was 128 mg/L (≈ 336 µM).

Same assay, conditions: Example 2, Table 12
In the case of `O=c1cc(-c2ccccc2)oc2ccccc12.O=c1cc(-c2ccccc2)oc2ccccc12` [Compound 25], the “MIC (mg/L) S. aureus Mu50” value is reported as 64 mg/L.

Same assay, conditions: Example 8, Table 17
`O=c1c(O)c(-c2ccccc2)oc2cc(O)c(O)c(O)c12` [M-21] was tested, and the “MIC Mu50” value was 16 mg/L (≈ 55.9 µM).
